US20170217976A1, “6-(AMINO ACID)-MORPHINAN DERIVATIVES IN COMBINATION WITH PERMEATION […] FOR USE AS AN ORALLY, […], TRA[…] NASALLY AD[…]” (C[…], priority 2014, published 2017)
Like-named read-outs stand apart in the source and are kept apart here.

What was measured:
MOR = target: T1, MOR (Rattus norvegicus, UniProt P33535); assay: Opioid receptor binding, MOR, rat brain membranes
T1 construct: from tissue

DOR = target: T2, DOR (Rattus norvegicus, UniProt P33533); assay: Opioid receptor binding, DOR, rat brain membranes
T2 construct: from tissue
T2 sequence (P33533 whole entry): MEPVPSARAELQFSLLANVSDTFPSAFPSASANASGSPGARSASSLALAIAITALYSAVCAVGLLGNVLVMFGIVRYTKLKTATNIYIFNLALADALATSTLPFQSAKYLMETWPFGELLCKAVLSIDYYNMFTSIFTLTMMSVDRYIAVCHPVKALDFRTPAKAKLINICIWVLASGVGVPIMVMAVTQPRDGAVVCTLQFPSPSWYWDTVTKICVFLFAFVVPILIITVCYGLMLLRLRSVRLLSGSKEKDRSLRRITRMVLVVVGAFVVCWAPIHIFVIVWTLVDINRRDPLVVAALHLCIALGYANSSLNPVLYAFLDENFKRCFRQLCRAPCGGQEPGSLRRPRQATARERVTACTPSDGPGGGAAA

KOR = target: T3, KOR (Cavia porcellus, UniProt P41144); assay: Opioid receptor binding, KOR, guinea pig brain membranes
T3 construct: from tissue
T3 sequence (P41144 whole entry): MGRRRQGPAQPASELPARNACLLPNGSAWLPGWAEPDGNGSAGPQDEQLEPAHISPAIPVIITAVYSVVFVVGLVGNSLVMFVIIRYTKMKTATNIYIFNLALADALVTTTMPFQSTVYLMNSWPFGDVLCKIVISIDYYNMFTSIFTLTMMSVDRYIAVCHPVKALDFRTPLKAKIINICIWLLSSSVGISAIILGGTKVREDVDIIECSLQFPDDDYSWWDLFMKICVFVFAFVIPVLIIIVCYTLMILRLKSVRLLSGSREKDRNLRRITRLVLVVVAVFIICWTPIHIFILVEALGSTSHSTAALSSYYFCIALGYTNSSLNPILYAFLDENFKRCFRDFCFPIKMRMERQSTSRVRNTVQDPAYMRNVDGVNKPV

[1] = Binding Ki MOR, Table 2-6, rat brain membranes
[2] = Binding Ki DOR, Table 2-6, rat brain membranes
[3] = Binding Ki KOR, Table 2-6, guinea pig brain membranes
[4] = in vitro binding assay, rat brain membranes, read-out: Binding Ki (nM) MOR
[5] = in vitro binding assay, rat brain membranes, read-out: Binding Ki (nM) DOR
[6] = in vitro binding assay, guinea pig brain membranes, read-out: Binding Ki (nM) KOR
[7] = Binding Ki (nM) MOR, in vitro binding assay, rat brain membranes
[8] = Binding Ki (nM) DOR, in vitro binding assay, rat brain membranes
[9] = Binding Ki (nM) KOR, in vitro binding assay, guinea pig brain membranes
[10] = Binding Ki MOR, Table 1-4, rat brain membranes
[11] = Binding Ki DOR, Table 1-4, rat brain membranes
[12] = Binding Ki KOR, Table 1-4, guinea pig brain membranes

T1 sequence (P33535 whole entry): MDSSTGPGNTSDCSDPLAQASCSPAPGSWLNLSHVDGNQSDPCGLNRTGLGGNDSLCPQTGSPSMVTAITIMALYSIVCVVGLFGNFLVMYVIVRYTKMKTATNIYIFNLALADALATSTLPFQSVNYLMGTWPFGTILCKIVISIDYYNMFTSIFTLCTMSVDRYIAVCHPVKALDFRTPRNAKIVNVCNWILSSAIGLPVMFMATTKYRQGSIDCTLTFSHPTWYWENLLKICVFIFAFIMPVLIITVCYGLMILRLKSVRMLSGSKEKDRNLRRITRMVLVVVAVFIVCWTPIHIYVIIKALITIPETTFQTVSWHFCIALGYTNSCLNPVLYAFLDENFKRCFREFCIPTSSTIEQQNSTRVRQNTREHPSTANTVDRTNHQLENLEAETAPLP

Row | SMILES | Ki (MOR; [1]) | Ki (DOR; [2]) | Ki (KOR; [3]) | Ki (MOR; [4]) | Ki (DOR; [5]) | Ki (KOR; [6]) | Ki (MOR; [7]) | Ki (DOR; [8]) | Ki (KOR; [9]) | other results
1 | CO[C@@]12CC[C@@H](N[C@@H](CC(C)C)C(=O)OC(C)(C)C)[C@@H]3Oc4c(O)ccc5c4[C@@]31CCN(CC1CC1)[C@@H]2C5 [77-tBu ester] | 0.13 nM | 0.094 nM | 0.68 nM | – | – | – | – | – | – | –
2 | CN1CCC23c4c5ccc(O)c4OC2C(NCC(=O)OC(C)(C)C)CCC3(OCCCc2ccccc2)C1C5 (stereo not drawn) [7-t-Bu ester] | – | – | – | 1.4 nM | 1.01 nM | 1.26 nM | – | – | – | –
3 | CO[C@@]12CC[C@@H](NCCC(=O)OC(C)(C)C)[C@@H]3Oc4c(O)ccc5c4[C@@]31CCN(CC1CC1)[C@@H]2C5 [64-tBu ester] | 1.52 nM | 0.91 nM | 2.13 nM | – | – | – | – | – | – | –
4 | CO[C@@]12CC[C@H](N[C@@H](CO)C(=O)OC(C)(C)C)[C@@H]3Oc4c(O)ccc5c4[C@@]31CCN(C)[C@@H]2C5 [36-t-Bu ester] | – | – | – | – | – | – | 0.2 nM | 0.17 nM | 6.2 nM | –
5 | C[C@H](N[C@@H]1CC[C@@]2(O)[C@H]3Cc4ccc(O)c5c4[C@@]2(CCN3C)[C@H]1O5)C(=O)O [Compound 14] | – | – | – | – | – | – | – | – | – | Ki (MOR; [10]): 11 nM; Ki (DOR; [11]): 78.7 nM; Ki (KOR; [12]): 542 nM
6 | CCC(C)C(NC1CCC2(OC)C3Cc4ccc(O)c5c4C2(CCN3C)C1O5)C(=O)OC(C)(C)C (single isomer, unassigned) [42-t-Bu ester] | – | – | – | – | – | – | 1.04 nM | 1 nM | 29.2 nM | –
7 | CO[C@@]12CC[C@H](N[C@@H](C(=O)OC(C)(C)C)C(C)C)[C@@H]3Oc4c(O)ccc5c4[C@@]31CCN(CC1CC1)[C@@H]2C5 [70-tBu ester] | 0.63 nM | 0.51 nM | 18.8 nM | – | – | – | – | – | – | –
8 | CCO[C@@]12CC[C@@H](N[C@@H](Cc3ccccc3)C(=O)O)[C@@H]3Oc4c(O)ccc5c4[C@@]31CCN(CC1CC1)[C@@H]2C5 [Compound 56] | 1.04 nM | 1.76 nM | 11.6 nM | – | – | – | – | – | – | –
9 | COC12CCC(NC(C(=O)O)C(C)C)C3Oc4c(O)ccc5c4C31CCN(C)C2C5 (single isomer, unassigned) [Compound 28] | – | – | – | – | – | – | 3.16 nM | 3.91 nM | 325 nM | Ki (MOR; [10]): 3.16 nM; Ki (DOR; [11]): 3.91 nM; Ki (KOR; [12]): 325 nM
10 | CO[C@@]12CC[C@@H](N[C@@H](C(=O)OC(C)(C)C)C(C)C)[C@@H]3Oc4c(O)ccc5c4[C@@]31CCN(C)[C@@H]2C5 [31-t-Bu ester] | – | – | – | 1.98 nM | 0.21 nM | 206 nM | – | – | – | –
11 | CO[C@@]12CC[C@@H](N[C@@H](CC(N)=O)C(=O)OC(C)(C)C)[C@@H]3Oc4c(O)ccc5c4[C@@]31CCN(C)[C@@H]2C5 [27-t-Bu ester] | – | – | – | – | – | – | 0.6 nM | 0.66 nM | 75.8 nM | –
12 | CO[C@@]12CC[C@H](N[C@@H](CCCCN)C(=O)OC(C)(C)C)[C@@H]3Oc4c(O)ccc5c4[C@@]31CCN(C)[C@@H]2C5 [38-t-Bu ester] | – | – | – | 0.17 nM | 0.092 nM | 0.89 nM | – | – | – | –
13 | CO[C@@]12CC[C@@H](N[C@@H](CCC(N)=O)C(=O)OC(C)(C)C)[C@@H]3Oc4c(O)ccc5c4[C@@]31CCN(C)[C@@H]2C5 [18-t-Bu ester] | – | – | – | – | – | – | 1.65 nM | 1.35 nM | 163 nM | –
14 | COC12CCC(NC(CCC(=O)O)C(=O)O)C3Oc4c(O)ccc5c4C31CCN(CC1CC1)C2C5 (stereo not drawn) [Compound 74] | 1.93 nM | 3.61 nM | 6.66 nM | – | – | – | – | – | – | Ki (MOR; Binding Ki MOR, Table 1-6, rat brain membranes): 1.93 nM; Ki (DOR; Binding Ki DOR, Table 1-6, rat brain membranes): 3.61 nM; Ki (KOR; Binding Ki KOR, Table 1-6, guinea pig brain membranes): 6.66 nM
15 | CO[C@@]12CC[C@H](N[C@@H](Cc3ccc(O)cc3)C(=O)OC(C)(C)C)[C@@H]3Oc4c(O)ccc5c4[C@@]31CCN(C)[C@@H]2C5 [9-t-Bu ester] | – | – | – | – | 0.42 nM | 12.3 nM | 0.59 nM | – | – | –
16 | CO[C@@]12CC[C@H](N[C@@H](CCSC)C(=O)OC(C)(C)C)[C@@H]3Oc4c(O)ccc5c4[C@@]31CCN(C)[C@@H]2C5 [23-t-Bu ester] | – | – | – | 0.32 nM | 0.12 nM | 10.5 nM | – | – | – | –
17 | CO[C@@]12CC[C@H](N[C@@H](CC(N)=O)C(=O)OC(C)(C)C)[C@@H]3Oc4c(O)ccc5c4[C@@]31CCN(C)[C@@H]2C5 [26-t-Bu ester] | – | – | – | 0.45 nM | 0.33 nM | 5.33 nM | – | – | – | –
18 | CC[C@H](C)[C@H](N[C@@H]1CC[C@@]2(OC)[C@H]3Cc4ccc(O)c5c4[C@@]2(CCN3CC2CC2)[C@H]1O5)C(=O)OC(C)(C)C [78-tBu ester] | 0.98 nM | 0.52 nM | 5.67 nM | – | – | – | – | – | – | –
19 | CO[C@@]12CC[C@@H](NCCCC(=O)OC(C)(C)C)[C@@H]3Oc4c(O)ccc5c4[C@@]31CCN(C)[C@@H]2C5 [16-t-Bu ester] | – | – | – | 0.54 nM | 1.63 nM | 8.79 nM | – | – | – | –
20 | CO[C@@]12CC[C@H](N[C@@H](CCC(N)=O)C(=O)O)[C@@H]3Oc4c(O)ccc5c4[C@@]31CCN(C)[C@@H]2C5 [Compound 17] | – | – | – | – | – | – | 3.24 nM | 5.13 nM | 351 nM | Ki (MOR; [10]): 3.24 nM; Ki (DOR; [11]): 5.13 nM; Ki (KOR; [12]): 351 nM
